From PMC6199744, “Development of Chemical Proteomics for the Folateome and Analysis of the Kinetoplastid Folateome” (ACS Infectious Diseases, 2018)
Several values for one entry are separate records, joined by “and”; a condition that tells them apart may be missing. Identical values can stand only once. Like-named read-outs stand apart in the source and are kept apart here.

System: L. major lysate proteins
Experiment: Multitargeted bead mixture chemoproteomics, single concentration competition, proteome-wide
Type: binding
Details: for fold change / fold change relative to vehicle control: vehicle control = 1; for fold change relative to vehicle control: competition with free ligand

SMILES: Nc1nc2cccc(-c3ccccc3)c2n1Cc1ccc(Cl)c(Cl)c1 [compound 3]
- fold change vs vehicle control: 1.02 and 1.09 and 1
- fold change (LINJ.05.0500 ATPASE ALPHA SUBUNIT): 1.08
- fold change (LINJ.36.4570 […] SUBUNIT): 0.83
- fold change (LMJF.10.0510 GLYCEROL-3-PHOSPHATE DEH[…] ], GLYCOSOMAL): 0.91
- fold change (LMJF.16.1610 PROHIBITIN): 1.25
- fold change (LMJF.18.1370 HEAT SHOCK PROTEIN, PUTATIVE): 1.16
- fold change (LMJF.19.0300 RNA BINDING PROTEIN, PUTATIVE): 0.91
- fold change (LMJF.21.0760 […]-ATP-ASE SUBUNIT 5, PUTATIVE): 0.77
- fold change (LMJF.22.0410 HY[…], CONSERVED): 0.97
- fold change (LMJF.25.1770 ENOYL-COA REDUCTASE, PUTATIVE): 1.06
- fold change (LMJF.26.0300 AMINOPEPTIDASE-LIKE PROTEIN): 0.7
- fold change (LMJF.26.2560 HY[…], CONSERVED): 1.1
- fold change (LMJF.27.1810 GLYCOSOMAL PHOSPHOENOLPYRUVATE CARBOXYKINASE, PUTATIVE): 1.1
- fold change (LMJF.28.0490 PROPIONYL-COA C[…] CHAIN, PUTATIVE): 0.63
- fold change (LMJF.29.0940 HY[…], CONSERVED): 1.08
- fold change (LMJF.29.1310 CARNITINE/CHOLINE ACETYLTRANSFERASE, PUTATIVE): 0.86
- fold change (LMJF.29.1470 HY[…], CONSERVED): 0.86
- fold change (LMJF.29.2440 HY[…], CONSERVED): 1.01
- fold change (LMJF.30.2350 SPHINGOSINE 1-PHOSPHATE LYASE): 1.2
- fold change (LMJF.30.2970 GLYCERALDEHYDE 3-PHOSPHATE DEHYDROGENASE, GLYCOSOMAL): 1.09
- fold change (LMJF.30.3390 CAS/CSE/IMPORTIN DOMAIN PROTEIN, PUTATIVE): 0.98
- fold change (LMJF.31.2650 ACETOIN DEHYDROGENASE E3 COMPONENT-LIKE PROTEIN): 0.96
- fold change (LMJF.31.2970 ACETYL-COA CARBOXYLASE, PUTATIVE): 0.89
- fold change (LMJF.33.1030 HY[…], CONSERVED): 0.88
- fold change (LMJF.35.5040 polyadenylate-binding protein 1): 0.88
- fold change (LMJF.35.5250 ALPHA-1,2-MANNOSYLTRANSFERASE, PUTATIVE): 0.83
- fold change (LMJF.36.5100 HY[…], CONSERVED): 1.03
- fold change (LMJF.[…] RIBOSOMAL PROTEIN S7, PUTATIVE): 1.35
- fold change vs vehicle control (protein LINJ.03.0940 HY[…], CONSERVED): 1.07
- fold change vs vehicle control (protein LINJ.09.0030 HY[…], CONSERVED): 0.7
- fold change relative to vehicle control (protein LINJ.11.0780 40S RIBOSOMAL PROTEIN S21, PUTATIVE): 1.32
- fold change (protein LINJ.13.0990 […] SUBUNIT 2, PUTATIVE): 0.91
- fold change vs vehicle control (protein LINJ.13.1460 ALPHA TUBULIN): 0.98
- fold change (protein LINJ.15.0090 HEAT SHOCK PROTEIN HSLVU, ATPASE SUBUNIT HSLU, PUTATIVE): 0.88
- fold change relative to vehicle control (protein LINJ.16.1380 […], PUTATIVE): 0.96
- fold change vs vehicle control (protein LINJ.19.0300 RNA BINDING PROTEIN): 1.22
- fold change (protein LINJ.20.0630 CYTIDINE TR[…], PUTATIVE): 1.05
- fold change relative to vehicle control (protein LINJ.20.1390 COATOMER BETA SUBUNIT, PUTATIVE): 0.93
- fold change vs vehicle control (protein LINJ.21.1310 40S RIBOSOMAL PROTEIN S23, PUTATIVE): 1.16
- fold change vs vehicle control (protein LINJ.23.1680 HY[…], CONSERVED): 1.1
- fold change vs vehicle control (protein LINJ.25.1170 […] OXIDASE VII, PUTATIVE): 1.01
- fold change relative to vehicle control (protein LINJ.25.1220 RIBOSOMAL PROTEIN S25): 1.27
- fold change vs vehicle control (protein LINJ.26.1080 HY[…], CONSERVED): 1.08
- fold change vs vehicle control (protein LINJ.27.1140 HY[…], CONSERVED): 1.02
- fold change vs vehicle control (protein LINJ.28.1100 RIBOSOMAL PROTEIN S20, PUTATIVE): 0.97
- fold change relative to vehicle control (protein LINJ.28.1940 R[…] A, 51KDA SUBUNIT, PUTATIVE): 1.1
- fold change (protein LINJ.31.2350 ADP-RI[…], PUTATIVE): 1.09
- fold change vs vehicle control (protein LINJ.34.0670 […]-ATP-ASE SUBUNIT 11, PUTATIVE): 0.75
- fold change (protein LINJ.35.0410 40S RIBOSOMAL PROTEIN S3A, PUTATIVE): 1.1
- fold change relative to vehicle control (protein LINJ.35.0780 CBS DOMAIN PROTEIN, CONSERVED): 1.01
- fold change vs vehicle control (protein LINJ.36.0510 HY[…], CONSERVED): 0.99
- fold change vs vehicle control (protein LINJ.36.3940 40S RIBOSOMAL PROTEIN S27-1, PUTATIVE): 0.88
- fold change (protein LINJ.36.4180 HS1VU COMPLEX P[…]-LIKE): 0.87
- fold change (protein LINJ.36.7350 […] OXIDASE SUBUNIT I): 0.96
- fold change (protein LMJF.01.0520 LONG-CHAIN-FATTY-ACID-COA LIGASE, PUTATIVE): 0.91
- fold change vs vehicle control (protein LMJF.02.0460 HY[…], CONSERVED): 1.05
- fold change vs vehicle control (protein LMJF.03.0230 LONG CHAIN FATTY ACYL COA SYNTHETASE, PUTATIVE): 0.98
- fold change vs vehicle control (protein LMJF.03.0630 HY[…], CONSERVED): 0.95
- fold change (protein LMJF.05.0780 HY[…], CONSERVED): 1.06
- fold change (protein LMJF.06.0010 HISTONE H4): 1.11
- fold change (protein LMJF.06.0140 […] 6 SUBUNIT, PUTATIVE): 0.69
- fold change (protein LMJF.06.0650 […], PUTATIVE): 1
- fold change vs vehicle control (protein LMJF.08.0510 RIBOSE-PHOSPHATE PYROPHOSPHOKINASE, PUTATIVE): 0.99
- fold change vs vehicle control (protein LMJF.08.0550 T[…]-LIKE PROTEIN): 1.01
- fold change vs vehicle control (protein LMJF.08.1100 HY[…], CONSERVED): 0.98
- fold change relative to vehicle control (protein LMJF.09.1120 MIT[…] BINDING PROTEIN 2,MRP2, GBP25): 1.01
- fold change vs vehicle control (protein LMJF.09.1260 HY[…], CONSERVED): 0.98
- fold change (protein LMJF.10.1010 NUCLEOSIDE PHOSPHORYLASE-LIKE PROTEIN): 0.97
- fold change (protein LMJF.10.1240 HY[…], CONSERVED): 0.91
- fold change vs vehicle control (protein LMJF.11.0130 NGG1 I[…] 3-LIKE PROTEIN): 0.94
- fold change vs vehicle control (protein LMJF.11.0240 […] 7 SUBUNIT, PUTATIVE): 1.1
- fold change (protein LMJF.11.1050 PRETRA[…], ALPHA SUBUNIT, PUTATIVE): 1.24
- fold change vs vehicle control (protein LMJF.11.1110 60S RIBOSOMAL PROTEIN L28, PUTATIVE): 1.17
- fold change vs vehicle control (protein LMJF.12.0210 […] […]1L8 3, PUTATIVE): 1.07
- fold change vs vehicle control (protein LMJF.12.0280 ORNITHINE DECARBOXYLASE, PUTATIVE): 1
- fold change vs vehicle control (protein LMJF.13.0450 HY[…], CONSERVED): 0.93
- fold change vs vehicle control (protein LMJF.13.0870 MIT[…] ALPHA SUBUNIT, PUTATIVE): 1.33
- fold change vs vehicle control (protein LMJF.14.0130 INOSINE-GUANINE […], PUTATIVE): 0.93
- fold change (protein LMJF.14.0310 […] 3 SUBUNIT, PUTATIVE): 0.98
- fold change (protein LMJF.14.0650 FATTY ACID ELONGASE, PUTATIVE): 1.11
- fold change (protein LMJF.14.0660 FATTY ACID ELONGASE, PUTATIVE): 1.17
- fold change (protein LMJF.14.0705 FATTY ACID ELONGASE, PUTATIVE): 1.24
- fold change (protein LMJF.14.0740 FATTY ACID ELONGASE, PUTATIVE): 1.23
- fold change relative to vehicle control (protein LMJF.14.1120 KINESIN K39, PUTATIVE): 1.49
- fold change vs vehicle control (protein LMJF.15.0230 LYSYL-TRNA SYNTHETASE, PUTATIVE): 1.01
- fold change vs vehicle control (protein LMJF.15.0280 RIBONUCLEOPROTEIN P18, MIT[…], PUTATIVE): 0.99
- fold change (protein LMJF.15.1010 GLUTAMATE DEHYDROGENASE): 1.08
- fold change relative to vehicle control (protein LMJF.16.0520 HY[…], CONSERVED): 1.36
- fold change (protein LMJF.16.0540 ASPARTATE […], PUTATIVE): 1.04
- fold change vs vehicle control (protein LMJF.16.0950 SUCROSE-PHOSPHATE SYNTHASE-LIKE PROTEIN): 1.31
- fold change vs vehicle control (protein LMJF.16.0960 HY[…], CONSERVED): 0.93
- fold change (protein LMJF.16.1180 COATOMER DELTA SUBUNIT-LIKE PROTEIN): 1.08
- fold change (protein LMJF.17.0010 HY[…], CONSERVED): 1.07
- fold change vs vehicle control (protein LMJF.18.0510 ACONITASE, PUTATIVE): 1.01
- fold change vs vehicle control (protein LMJF.18.0890 RAB7 GTP BINDING PROTEIN, PUTATIVE): 0.91
- fold change (protein LMJF.18.1130 RAS-RELATED PROTEIN RAB-5, PUTATIVE): 1
- fold change (protein LMJF.19.1120 […]-ATP-ASE SUBUNIT, PUTATIVE): 0.82
- fold change vs vehicle control (protein LMJF.19.1160 HY[…], CONSERVED): 3.16
- fold change vs vehicle control (protein LMJF.19.1530 PEPT[…]-LIKE PROTEIN): 1.01
- fold change (protein LMJF.20.0100 PHOSPH[…] C, GLYCOSOMAL): 1.01
- fold change vs vehicle control (protein LMJF.21.0720 HY[…], CONSERVED): 0.93
- fold change (protein LMJF.21.1250 ADENYLATE KINASE, PUTATIVE): 0.71
- fold change (protein LMJF.21.1555 HY[…], CONSERVED): 1.05
- fold change (protein LMJF.21.1580 HY[…], UNKNOWN FUNCTION): 1.2
- fold change vs vehicle control (protein LMJF.21.1700 […] 2 SUBUNIT, PUTATIVE): 1.03
- fold change (protein LMJF.22.0230 AMINO ACID PERMEASE, PUTATIVE): 1.26
- fold change (protein LMJF.22.0570 […] SUBUNIT 1, PUTATIVE): 0.99
